Experimental data taken from patent US12622916B2, “Use of H3K9me3 modulation for enhancing cognitive function” (THE REGENTS OF THE UNIVERSITY OF CALIFORNIA, priority 2015, dated 2026).
Entries after “also recorded” stand apart in the source; their conditions may differ.

Assays:
[1] = molecular target: DNA methyltransferase DNMT1 (Homo sapiens, UniProt P26358); experiment: Inhibitory activity towards DNA methyltransferase DNMT1; type: biochemical
[2] = molecular target: histone acetyltransferase p300 (Homo sapiens, UniProt Q09472); experiment: Inhibitory activity towards histone acetyltransferase p300; type: biochemical
histone acetyltransferase p300, sequence (Q09472 whole entry, species assumed): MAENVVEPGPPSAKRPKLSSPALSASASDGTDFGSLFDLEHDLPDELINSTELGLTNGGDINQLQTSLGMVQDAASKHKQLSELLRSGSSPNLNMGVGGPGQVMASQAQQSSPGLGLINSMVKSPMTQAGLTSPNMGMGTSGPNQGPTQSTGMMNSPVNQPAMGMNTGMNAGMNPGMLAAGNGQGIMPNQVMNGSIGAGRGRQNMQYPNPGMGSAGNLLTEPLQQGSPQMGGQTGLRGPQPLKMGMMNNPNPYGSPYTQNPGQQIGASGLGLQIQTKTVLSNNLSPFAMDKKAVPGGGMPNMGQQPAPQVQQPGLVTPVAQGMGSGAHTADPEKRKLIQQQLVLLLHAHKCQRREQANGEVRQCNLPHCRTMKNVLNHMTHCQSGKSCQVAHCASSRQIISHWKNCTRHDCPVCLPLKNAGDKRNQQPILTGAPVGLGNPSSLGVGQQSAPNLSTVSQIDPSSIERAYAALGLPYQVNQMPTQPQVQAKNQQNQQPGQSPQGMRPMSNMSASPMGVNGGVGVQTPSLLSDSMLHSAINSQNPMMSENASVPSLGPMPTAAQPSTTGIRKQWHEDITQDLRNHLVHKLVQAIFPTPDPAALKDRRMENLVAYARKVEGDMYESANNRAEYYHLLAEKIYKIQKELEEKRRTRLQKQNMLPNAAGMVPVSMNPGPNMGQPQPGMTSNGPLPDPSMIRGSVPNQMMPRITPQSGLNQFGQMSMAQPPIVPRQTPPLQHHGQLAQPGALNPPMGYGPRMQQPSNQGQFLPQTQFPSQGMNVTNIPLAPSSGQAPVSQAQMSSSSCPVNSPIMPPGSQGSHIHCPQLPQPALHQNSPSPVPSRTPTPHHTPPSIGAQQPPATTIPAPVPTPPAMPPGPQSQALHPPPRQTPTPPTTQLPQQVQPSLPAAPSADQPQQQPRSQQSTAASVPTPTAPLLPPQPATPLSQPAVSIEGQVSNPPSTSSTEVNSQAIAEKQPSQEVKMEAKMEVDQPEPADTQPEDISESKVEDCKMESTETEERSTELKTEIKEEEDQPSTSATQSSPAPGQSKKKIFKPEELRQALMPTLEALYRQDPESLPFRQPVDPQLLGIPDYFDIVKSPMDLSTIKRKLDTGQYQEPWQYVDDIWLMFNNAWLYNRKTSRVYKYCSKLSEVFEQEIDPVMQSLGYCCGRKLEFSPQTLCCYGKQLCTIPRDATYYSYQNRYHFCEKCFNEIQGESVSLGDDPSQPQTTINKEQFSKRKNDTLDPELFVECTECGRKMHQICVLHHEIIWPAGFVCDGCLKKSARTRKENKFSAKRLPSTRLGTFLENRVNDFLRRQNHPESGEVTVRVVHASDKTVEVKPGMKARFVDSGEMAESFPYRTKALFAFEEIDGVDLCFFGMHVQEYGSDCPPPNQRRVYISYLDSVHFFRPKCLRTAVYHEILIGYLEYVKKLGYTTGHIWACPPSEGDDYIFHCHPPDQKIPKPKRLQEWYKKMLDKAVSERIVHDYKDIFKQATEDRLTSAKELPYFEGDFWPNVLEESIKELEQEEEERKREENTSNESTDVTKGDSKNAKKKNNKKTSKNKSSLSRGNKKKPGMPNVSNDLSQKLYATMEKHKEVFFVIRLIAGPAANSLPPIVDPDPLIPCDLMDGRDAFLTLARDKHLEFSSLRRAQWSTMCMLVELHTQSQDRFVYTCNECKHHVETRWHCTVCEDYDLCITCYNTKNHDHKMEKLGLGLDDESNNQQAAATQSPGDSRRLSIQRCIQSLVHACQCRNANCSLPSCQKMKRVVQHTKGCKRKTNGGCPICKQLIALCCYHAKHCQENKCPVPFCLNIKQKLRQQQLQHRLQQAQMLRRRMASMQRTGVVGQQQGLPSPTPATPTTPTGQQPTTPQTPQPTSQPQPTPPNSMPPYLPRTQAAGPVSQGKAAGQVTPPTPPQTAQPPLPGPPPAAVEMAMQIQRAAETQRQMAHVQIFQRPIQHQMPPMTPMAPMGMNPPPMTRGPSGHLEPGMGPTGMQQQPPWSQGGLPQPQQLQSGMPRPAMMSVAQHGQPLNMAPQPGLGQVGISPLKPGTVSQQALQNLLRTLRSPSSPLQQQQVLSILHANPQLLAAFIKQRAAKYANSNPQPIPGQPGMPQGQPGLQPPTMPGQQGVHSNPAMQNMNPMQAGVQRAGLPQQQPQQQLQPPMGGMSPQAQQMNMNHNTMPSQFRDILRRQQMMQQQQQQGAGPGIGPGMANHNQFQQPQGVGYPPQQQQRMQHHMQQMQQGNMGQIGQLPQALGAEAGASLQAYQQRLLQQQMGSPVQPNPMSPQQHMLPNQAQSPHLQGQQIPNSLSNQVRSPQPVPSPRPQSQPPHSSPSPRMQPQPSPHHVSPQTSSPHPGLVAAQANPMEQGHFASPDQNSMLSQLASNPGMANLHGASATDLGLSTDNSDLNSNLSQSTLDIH
Text: (§1) In accordance with one or more embodiments of the present invention, the role of H3K9me3 in learning and memory in an animal model of aging using a newly developed analog of the epidithiodiketopiperazine alkaloid chaetocin A called ETP69, illustrated in FIG. 1, is studied.

[3] = tested on: panel of 17 human histone methytransferases; experiment: Selectivity against a panel of 17 human histone methyltransferases; type: biochemical; settings: versus chaetocin A
Text: as §1

aged mice = experiment: Contextual fear conditioning in aged mice; type: in vivo; settings: 10 mg/kg i.p., versus aged controls
Procedure: Fear conditioning: 14 aged (18-20 months) male mice were placed in the fear-conditioning chamber were allowed to explore for 2 minutes before receiving one electric foot shocks (2 seconds, 0.2 mA). Animals were returned to the home cage 2 minutes after the foot shock.

young C57Bl/6J male mice = experiment: Object location memory (OLM) task in young mice; type: in vivo
Procedure: (§2) Object Location Memory (OLM): Training and testing procedures were performed using a standard OLM protocol. Briefly, 22 aged mice and 18 young mice were handled for about 2-3 minutes per day for 5 days, followed by habituation to the experimental apparatus (white rectangular open field measuring 30×23×21.5 cm) for 5 min per day for 5 consecutive days before training.
18 young mice were also tested in the same OLM paradigm as described above. To determine whether the drug impacted acquisition or consolidation mechanisms, the young mice were injected with the 10 mg/kg compound or vehicle (i.p, n=6/group), either just before or right after the acquisition trial, and tested 24 hours post-acquisition. FIG. 3 is a graphical representation of the results of OLM test showing the differences in exploration between mice treated with either vehicle, or 10 mg/kg of ETP69. […] Data are mean±SEM; n=7 or 8/group.

[4] = tested on: 14 DIV hippocampal neurons; experiment: PSD-95 immunoreactivity and dendritic F-actin staining in hippocampal neurons; type: cell-based; settings: 20 nM, 24 hours
Text: Neurons were stained with antibodies against PSD-95 (red) and MAP2 (green). Scale bars: 10 μm, top panel; 2 μm, bottom panel.
Note presence of numerous puncta marking presence of many spines. Top panel: Control, bottom panel: ETP treated neurons. Scale bar: 2 μm.

aged C57Bl/6J male mice = experiment: Object location memory (OLM) task in aged mice; type: in vivo; settings: for OLM retention: memory performance (exploration of novel versus familiar location): retention test 24 hours later
Procedure: as §2
Dose Response in OLM: On the test day mice were given 3 minutes of habituation (in an empty test arena) followed by i.p. injection of ETP69 (10 mg/kg (n=8) or 20 mg/kg (n=7)) or vehicle (n=7). Mice were then given a 3-min acquisition trial (with 2 similar objects placed in the arena opposite each other) 30 minutes after the i.p. injection of drug or vehicle and all animals were then returned to their home cages for a 24 hour inter-trial interval. Twenty-four hours later, a 3-minute retention test was administered, where one object was moved to a novel location and the amount of time the animals spent exploring the novel versus familiar location was recorded in order to evaluate the dose response in the OLM task. Since animals that had received 10 mg/kg performed better than other groups in the OLM task, 10 mg/kg was used for the remainder of the study. This OLM paradigm has previously shown to be subthreshold for learning.
(§3) Acquisition (pre-training) or Consolidation (post-training): In another test, aimed to determine the efficacy of the compound in pre and post training paradigms, the same group of 22 aged animals were retested on the OLM task 3 weeks after the first test. To determine whether the drug impacted acquisition or consolidation mechanisms, mice were injected with the 10 mg/kg compound (i.p. n=7) or vehicle (n=8). Animals were sacrificed right after retention testing (i.e. 24 hours post injection), and hippocampi were removed, rapidly frozen on dry ice, and stored at −80° C. until processing for trimethylation levels and BDNF assay. FIG. 2 is a graphical representation of the effect of the drug at 10 mg/kg and 20 mg/kg (i.p) administered 30 minutes prior to acquisition phase in the novel place position task in mice. […] Data are mean±SEM; n=7 or 8/group.

BDNF = experiment: ELISA for BDNF protein in hippocampus; type: in vivo; settings: aged mice; 10 mg/kg i.p. before or right after OLM acquisition; versus controls
Procedure: as §3
ELISA was performed using the BDNF Emax Immunoassay System (G7610, Promega) according to the manufacturer's instructions. Two sets of samples were prepared from the hippocampus of each animal, and all reactions were performed in duplicate.

CREB = CREB phosphorylation at Ser133 by Western blotting; type: cell-based
Text: FIG. 16 is an image illustrating ETP69 increased CREB phosphorylation at Ser133 measured by Western blotting. CREB is a transcription factor whose activation is involved in synaptic plasticity and memory formation.

DNA methyltransferase DNMT1, sequence (P26358 whole entry): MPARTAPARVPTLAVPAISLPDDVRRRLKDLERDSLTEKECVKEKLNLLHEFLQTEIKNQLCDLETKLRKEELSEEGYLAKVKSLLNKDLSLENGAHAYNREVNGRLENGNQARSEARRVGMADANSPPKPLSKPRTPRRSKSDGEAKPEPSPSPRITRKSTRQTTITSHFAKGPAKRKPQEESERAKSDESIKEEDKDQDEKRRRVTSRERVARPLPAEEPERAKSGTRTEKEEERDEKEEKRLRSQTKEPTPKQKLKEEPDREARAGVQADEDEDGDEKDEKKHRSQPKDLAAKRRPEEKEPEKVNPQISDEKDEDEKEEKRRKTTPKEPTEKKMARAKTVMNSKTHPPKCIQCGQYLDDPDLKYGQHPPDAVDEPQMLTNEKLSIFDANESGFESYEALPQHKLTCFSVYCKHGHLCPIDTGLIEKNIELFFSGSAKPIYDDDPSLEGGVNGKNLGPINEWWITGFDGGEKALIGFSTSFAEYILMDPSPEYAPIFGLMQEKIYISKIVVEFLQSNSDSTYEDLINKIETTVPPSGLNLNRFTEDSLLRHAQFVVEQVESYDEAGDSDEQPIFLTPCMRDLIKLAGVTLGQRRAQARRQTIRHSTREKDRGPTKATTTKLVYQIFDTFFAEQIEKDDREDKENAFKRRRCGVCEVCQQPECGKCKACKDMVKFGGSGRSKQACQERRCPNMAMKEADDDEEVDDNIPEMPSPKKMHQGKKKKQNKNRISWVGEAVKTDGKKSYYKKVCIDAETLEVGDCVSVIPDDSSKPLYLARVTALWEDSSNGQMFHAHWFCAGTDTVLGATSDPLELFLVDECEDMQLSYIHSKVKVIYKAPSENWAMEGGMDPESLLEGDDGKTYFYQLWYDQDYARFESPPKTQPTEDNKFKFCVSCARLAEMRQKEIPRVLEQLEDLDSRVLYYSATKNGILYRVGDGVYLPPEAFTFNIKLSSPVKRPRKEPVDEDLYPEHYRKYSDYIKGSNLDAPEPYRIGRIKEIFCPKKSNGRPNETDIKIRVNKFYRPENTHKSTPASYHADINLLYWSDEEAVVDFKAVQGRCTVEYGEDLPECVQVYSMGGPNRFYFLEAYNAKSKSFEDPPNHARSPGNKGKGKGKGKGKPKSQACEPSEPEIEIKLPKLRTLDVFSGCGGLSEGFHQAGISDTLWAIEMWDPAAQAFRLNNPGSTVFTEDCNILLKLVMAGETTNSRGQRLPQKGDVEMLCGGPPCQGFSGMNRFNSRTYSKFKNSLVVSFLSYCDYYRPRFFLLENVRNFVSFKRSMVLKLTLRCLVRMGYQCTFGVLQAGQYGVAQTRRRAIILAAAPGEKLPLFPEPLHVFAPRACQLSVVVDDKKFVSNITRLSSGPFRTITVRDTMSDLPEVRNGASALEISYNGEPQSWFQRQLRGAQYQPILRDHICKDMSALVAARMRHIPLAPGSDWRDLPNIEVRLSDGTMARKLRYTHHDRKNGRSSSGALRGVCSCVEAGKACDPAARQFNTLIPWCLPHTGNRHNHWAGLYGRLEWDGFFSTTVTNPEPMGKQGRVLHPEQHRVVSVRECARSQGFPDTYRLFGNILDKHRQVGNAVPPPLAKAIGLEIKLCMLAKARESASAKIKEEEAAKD

SMILES: CN1C(=O)[C@@]23C[C@](C)(C#N)[C@H](c4ccc5c(c4)OCO5)N2C(=O)[C@]1(C)SS3 (racemic) [ETP69, Rac-(3S,6S,7S,8aS)-6-(benzo[d][1,3]dioxol-5-yl)-2,3,7-trimethyl-1,4-dioxohexahydro-6H-3,8a-epidithiopyrrolo[1,2-a]pyrazine-7-carbonitrile]
- inhibitory activity towards DNA methyltransferase DNMT1 [1]: no inhibitory activity
- inhibitory activity towards histone acetyltransferase p300 [2]: no inhibitory activity
- selectivity against a panel of 17 human histone methytransferases compared with chaetocin A [3]: significantly greater selectivity
- contextual fear conditioning performance (freezing) (aged mice): improved performance
- OLM acquisition phase: group differences (young C57Bl/6J male mice; 10 mg/kg i.p.): no significant group differences
- OLM performance, pre-trial administration (young C57Bl/6J male mice; 10 mg/kg i.p. 30 minutes prior to acquisition phase): did not show any statistical differences
- OLM performance, post-trial administration (young C57Bl/6J male mice; 10 mg/kg i.p. immediately after acquisition): did not show any statistical differences
- PSD-95 immunoreactivity [4]: increased PSD-95 immunoreactivity
- dendritic F-actin staining [4]: increased dendritic F-actin staining
- OLM acquisition phase: object exploration (seconds) (aged C57Bl/6J male mice; 10 mg/kg and 20 mg/kg i.p. 30 minutes before acquisition): no difference in object exploration
- OLM acquisition phase, pre/post-trial experiment: group differences (aged C57Bl/6J male mice; 10 mg/kg i.p.): no significant group differences
- OLM retention: memory performance (exploration of novel versus familiar location) (aged C57Bl/6J male mice; 10 mg/kg i.p. 30 minutes before acquisition, 10 mg/kg): explored the novel object significantly (measured in seconds) more than the familiar object; also recorded: induced memory improvements
- OLM performance, pre-trial administration (aged C57Bl/6J male mice; 10 mg/kg i.p. 30 minutes prior to acquisition phase, tested 24 h): improved performance in the OLM task
- OLM performance, post-trial administration (aged C57Bl/6J male mice; 10 mg/kg i.p. immediately after acquisition, tested 24 h): improved performance in the OLM task
- OLM acquisition phase: total exploration time (aged C57Bl/6J male mice; 20 mg/kg i.p.): decrease in total exploration time
- OLM retention: memory performance (exploration of novel versus familiar location) (aged C57Bl/6J male mice; 20 mg/kg i.p. 30 minutes before acquisition, 20 mg/kg): performed similar to aged controls; also recorded: but not 20 mg/kg induced memory improvements
- BDNF protein levels in hippocampus (BDNF): significantly elevated levels of BDNF
- phosphorylation of CREB at Ser133 (CREB): increased phosphorylation
